Source: US11198869B2, “Angelman syndrome antisense treatment” (The Texas A&M University System, priority 2017, dated 2021)
Oligonucleotides are written 5' to 3', each unit as a sugar letter and its base; * is a phosphorothioate linkage, no mark a phosphodiester; rarer units and linkages stand in square brackets, end groups in braces. Plain capitals give the bases only. l = locked nucleic acid (LNA); [5mC] = 5-methylcytosine; d = 2'-deoxy (DNA)

Assays:
Format in all cases: cell-based, human
UBE3A-AS [1] = assay: UBE3A-AS steady state RNA (TaqMan qRT-PCR) in GABAergic iPSC-derived neurons; settings: for Cluster (hierarchical clustering of fitted dose response curves): candidate ASOs, Cluster 1 representing the 9 most potent ASOs; for Difference, UBE3A-AS RNA level: ASOs 10 μM
Protocol: (§1) Human-specific ASOs were then designed to target this region, which included four ASOs targeting non-polymorphic regions in human and regions conserved (100%) with macaque (Rhesus and Cynomolgus) (Table 7 and FIG. 3A). Human induced pluripotent stem cell (iPSC) neural precursor cells were differentiated into GABAergic neurons for 14 DIV and then treated with a control ASO [ASO-C (10 μM, n=3)], Topotecan [Topo (1 μM, n=2)], and six ASOs targeting UBE3A-AS [ASO-1, ASO-2, ASO-3, ASO-4, ASO-5, and ASO-6 (10 μM, n=3)]. Additionally, an ASO targeting an intronic region downstream of SNORD109B was included (ASO-7). Six days post-treatment (20 DIV), RNA was isolated from the neurons and the steady state RNA levels of UBE3A-AS and UBE3A were estimated relative to the control treatment (FIG. 3B).
The potency of ASO-4 was further examined given its effect on UBE3A-AS RNA levels. GABAergic iPSC-derived neurons were treated at 14 DIV with a 10-point ½ log dose response curve of ASO-4 and Topotecan, as a positive control and for comparisons between treatment [1 nM, 3 nM, 10 nM, 30 nM, 100 nM, 300 nM, 1 μM, 3 μM, 10 μM, and 30 μM (ASO-4, n=6; Topotecan, n=2)]. At 20 DIV, the steady state RNA levels of UBE3A-AS were measured and dose response curves fitted to estimate the IC50 and Emax (i.e., maximum UBE3A-AS inhibition) (Table 9 and FIG. 4A). […]
Additional ASOs targeting the 5′-end of UBE3A-AS were then designed to optimize the target sequences of ASO-4 (ASO-4.1, ASO-4.2, ASO-4.3, and ASO-4.4) as well as two other target regions, ASO-3 (ASO-3.1 and ASO-3.2) and ASO-6 (ASO-6.1) (Table 11). Additionally, ASO-4 was manufactured at two different vendors for comparative purposes (ASO-4.S, Sigma; ASO-4.I, Integrated DNA Technologies). Human iPSC-derived neurons (GABAergic) were treated at 14 DIV with a […] ½ log dose curve of ASO-3.1, ASO-3.2, ASO-4.S, ASO-4.I, ASO-4.1, ASO-4.2, ASO-4.3, ASO-4.4, and ASO-6.1 [30 nM, 100 nM, 300 nM, 1 μM (n=6)]. At 20 DIV, the IC50 and Emax of each ASO was estimated as described above (FIG. 5A-B and Table 12). […] No significant difference was observed between ASO-4.S and ASO-4.I.
(§2) The potency of ASO-4 and ASO-6.1 was further examined in iPSC-derived neurons at a later time point in differentiation. GABAergic iPSC-derived neurons were treated at 29 DIV with a 10-point ½ log dose response curve of ASO-4 and ASO-6.1 [1 nM, 3 nM, 10 nM, 30 nM, 100 nM, 300 nM, 1 μM, 3 μM, 10 μM, and 30 μM (n=3)]. At 35 DIV, the IC50 and Emax of each ASO was estimated as described above (FIG. 5C-D and Table 14). The dose response curves of ASO-4 and ASO-6.1 were not similar (Parallelism test: F(3,172)=22.7, p<0.0001).
(§3) GABAergic and glutamatergic induced pluripotent stem cell (iPSC) derived neural precursor cells (NRC-100-010-001 and GNC-301-030-001, Cellular Dynamics International, Madison Wis.) were differentiated into neurons according to the manufactures protocol. Briefly, neural precursor cells were thawed and resuspended in chemically defined medium and added to sterile-culture plates coated with poly-D-lysine and laminin. The medium was replaced 24 hr after plating and then one-half of the medium was replaced every 3-5 days afterwards.
(§4) For cultured iPSC-derived neurons, RNA isolation and cDNA synthesis were performed using the Cell-to-CT kit (Thermo Fisher Scientific) in a lysate volume of 55 μl.
The steady state RNA levels of target transcripts were measured using TaqMan quantitative reverse-transcription PCR (qRT-PCR) assays. Total reaction volume was 10 uL, including 2 μl of cDNA, 1× Gene Expression Master mix (4369016, Thermo Fisher Scientific, Waltham, Mass.), and 1× TaqMan primer assay (Thermo Fisher Scientific). Cycling conditions were 2 minutes at 50° C., 10 minutes at 95° C., and 40 cycles of 15 seconds at 95° C. and 1 minute at 60° C., with readings taken at the 60° C. step of every cycle. […]

UBE3A-AS [2] = assay: as above
UBE3A = UBE3A steady state RNA (qRT-PCR) in GABAergic iPSC-derived neurons; settings: ASOs 10 μM
Protocol: as §1
The effects of ASO-4 and Topotecan were then examined on the SNORD116, IPW, SNORD115, and SNORD109A RNAs, which are located upstream of the ASO-4 target region (see FIG. 1A).
The potency of ASO-4 was further examined in iPSC-derived neurons at a later time point in differentiation. GABAergic iPSC-derived neurons were treated at 59 DIV with a control ASO [ASO-C, 10 μM (n=3)] and ASO-4 [1 uM, 5 μM, and 10 μM (n=3)], and the steady state RNA levels of UBE3A-AS and UBE3A were measured as described above (FIG. 4G). Unlike neurons treated with ASO-4 at an earlier time point, the RNA levels of UBE3A and UBE3A-AS were highly inversely correlated (FIGS. 4H and 4I). For example, the effect of ASO-4 (10 μM) on UBE3A-AS RNA levels was similar between neurons treated at 14 and 59 DIV [20 DIV: UBE3A-AS: ↓87% (95% confidence intervals (CI): 80 to 95%); 65 DIV: ↓81% (95% CI: 74 to 88%)], whereas the effect of ASO-4 on UBE3A RNA levels was substantially larger in neurons treated at 59 DIV [20 DIV: ↑30% (95% CI: 16 to 44%); 65 DIV: ↑86% (95% CI: 59% to 113%)].
as §2, §3, §4
The steady state RNA levels of target transcripts were measured using TaqMan quantitative reverse-transcription PCR (qRT-PCR) assays. Total reaction volume was 10 uL, including 2 μl of cDNA, 1× Gene Expression Master mix (4369016, Thermo Fisher Scientific, Waltham, Mass.), and 1× TaqMan primer assay (Thermo Fisher Scientific). Cycling conditions were 2 minutes at 50° C., 10 minutes at 95° C., and 40 cycles of 15 seconds at 95° C. and 1 minute at 60° C., with readings taken at the 60° C. step of every cycle. Reactions were run on a BIO-RAD T1000 CFX96 thermocycler (Bio-Rad Laboratories, Hercules Calif.), with internal control (PPIA, Hs99999904_m1, Thermo Fisher Scientific) and target [UBE3A-AS, Hs01372957_m1; SNORD116-11, Hs04275268_gH; SNORD115, Hs04275288_gH; IPW, Hs03455409_s1; SNORD109A/B, AP47WVR (Thermo Fisher Scientific); UBE3A: forward […] (SEQ ID NO:500); reverse: […]

[3] = candidate ASOs, 18 DIV to 24 DIV
[4] = candidate ASOs, 18 DIV to 24 DIV, 4-parameter logistic (Hill)
[5] = Topo 1 μM, 14 DIV to 20 DIV, ASO-1 minus labelled treatment
[6] = Topo 1 μM, 14 DIV to 20 DIV, ASO-R minus labelled treatment
[7] = Topo 1 μM, 14 DIV to 20 DIV, Topo minus labelled treatment
[8] = Topo 1 μM, treated 14 DIV, RNA 20 DIV, normalized to ASO-C, ASO-C minus labelled treatment
[9] = 14 DIV to 20 DIV, ASO-5 minus labelled treatment
[10] = Topo 1 μM, 14 DIV to 20 DIV, labelled treatment minus ASO-3
[11] = Topo 1 μM, 14 DIV to 20 DIV, labelled treatment minus ASO-R
[12] = Topo 1 μM, treated 14 DIV, RNA 20 DIV, normalized to ASO-C, labelled treatment minus ASO-C
[13] = Topo 1 μM, 14 DIV to 20 DIV, labelled treatment minus ASO-6

| Substance | Cluster (hierarchical clustering of fitted dose response curves) (UBE3A-AS [1]) | IC50 (UBE3A-AS [2]; Cluster 1 ASOs, 18 DIV to 24 DIV, parallel model, 4 Parameter logistic (Hill)) [nM] | IC50 Ratio relative to ASO-4.4.PS.L (UBE3A-AS [2]; Cluster 1 ASOs, equivalence, two one-sided tests) | Relative Potency (UBE3A-AS [2]; Cluster 1 ASOs, parallel model, relative to ASO-4.4.PS.L = 1) | Limit Exceeded (equivalence of IC50 relative to ASO-4.4.PS.L) (UBE3A-AS [2]; Cluster 1 ASOs, two one-sided tests) | 30 μM (Mean), normalized UBE3A-AS RNA level relative to vehicle (UBE3A-AS [2]; [3]) | Emax (normalized UBE3A-AS RNA level relative to vehicle) (UBE3A-AS [2]; [4]) | IC50 (UBE3A-AS [2]; candidate ASOs, treated 18 DIV, RNA 24 DIV, 10-point dose curve, n=2, full model, 4-parameter logistic (Hill)) [nM] | Difference, UBE3A-AS RNA level (UBE3A-AS [1]; [5]) | Difference, UBE3A-AS RNA level (UBE3A-AS [1]; [6]) | Difference, UBE3A-AS RNA level (UBE3A-AS [1]; [7]) | Difference, UBE3A-AS RNA level (UBE3A-AS [1]; [8]) | Difference, UBE3A-AS RNA level (UBE3A-AS [1]; 14 DIV to 20 DIV, ASO-3 minus labelled treatment) | Difference, UBE3A-AS RNA level (UBE3A-AS [1]; [9]) | Difference, UBE3A RNA level (UBE3A; [10]) | Difference, UBE3A RNA level (UBE3A; [11]) | Difference, UBE3A RNA level (UBE3A; [12]) | Difference, UBE3A RNA level (UBE3A; [13]) | Difference, UBE3A RNA level (UBE3A; Topo 1 μM, 14 DIV to 20 DIV, labelled treatment minus ASO-5) | Difference, UBE3A RNA level (UBE3A; 14 DIV to 20 DIV, labelled treatment minus Topo (1 μM)) |
| --- | --- | --- | --- | --- | --- | --- | --- | --- | --- | --- | --- | --- | --- | --- | --- | --- | --- | --- | --- | --- |
| A^L*G^L*A^L-a*t*g*g*c*a*c*a*t*c*t-5mC^L*T^L*T^L*G^L (lA*lG*lAdA*dT*dG*dG*dC*dA*dC*dA*dT*dC*dTl[5mC]*lT*lT*lG) [ASO-4.4.PO-1.L] | 1 | 322 | 0.88 | 0.2 | Lower | 0.1 | 0.04 | 226 | – | – | – | – | – | – | – | – | – | – | – | – |
| A^L*G^L-A^L*a-t*g-g*c-a*c-a*t-c*t-5mC^L*T^L*T^L*G^L (lA*lGlA*dAdT*dGdG*dCdA*dCdA*dTdC*dTl[5mC]*lT*lT*lG) [ASO-4.4.PO-2.L] | 3 | – | – | – | – | 0.6 | −2.7 | – | – | – | – | – | – | – | – | – | – | – | – | – |
| C^O*U^O*G^O*G^O*U^O*g*t*c*a*a*c*a*a*g*c*C^O*A^O*A^O*A^O*G^O [ASO-6] | – | – | – | – | – | – | – | – | 0.32 | 0.81 | 0.17 | 0.83 | 0.04 | 0.12 | 0.03 | 0.16 | 0.16 | – | – | – |
| G^O*U^O*U^O*U^O*U^O*c*t*t*c*c*t*c*c*a*c*A^O*G^O*U^O*C^O*U^O [ASO-5] | – | – | – | – | – | – | – | – | 0.20 | 0.69 | 0.05 | 0.71 | – | – | 0.03 | 0.16 | 0.16 | 0.00 | – | – |
| U^O*A^O*G^O*A^O*G^O*g*t*g*a*a*g*g*c*c*a*G^O*G^O*C^O*A^O*C^O [ASO-1] | – | – | – | – | – | – | – | – | – | 0.49 | – | 0.51 | – | – | 0.05 | 0.18 | 0.18 | 0.02 | 0.02 | 0.00 |
| U^O*G^O*U^O*C^O*A^O*g*t*t*t*c*t*c*c*c*t*G^O*A^O*A^O*C^O*A^O [ASO-3] | – | – | – | – | – | – | – | – | 0.28 | 0.77 | 0.13 | 0.79 | – | 0.08 | – | 0.13 | 0.13 | – | – | – |
